Measurements: patent publication US20250059191A1, “CRYSTALLINE FORMS OF DIAZABICYCLOOCTANE DERIVATIVE AND PRODUCTION PROCESS THEREOF” (MEIJI SEIKA PHARMA CO., LTD., priority 2013, published 2025)
Blank lines part the entries; values can stand above or below the compound they belong to.

How the values were obtained:
Assay type in all cases: physicochemical
[1] = Stability test of amorphous form and crystalline forms I-IV, 40° C./75% RH, airtight container
Description: Crystalline form III of Example 7a were dissolved in water and subjected to lyophilisation to afford (2S,5R)-N-(2-aminoethoxy)-7-oxo-6-(sulfooxy)-1,6-diazabicyclo[3.2.1]octane-2-carboxamide (VII-1) in an amorphous form. The compounds in an amorphous form and crystalline forms I-IV of Examples 5-8 were each weighed in a screw bottle, and stability tests were conducted at each of the temperatures and humidity conditions. The methods of measurement of related substances, content measurement, and water content measurement were as follows.
(§1) Samples were dissolved in water, and these solutions were used as sample solutions. The sample solutions each in the amount of 5 μL were tested under the following conditions by JP16, Liquid Chromatography <2.01>to obtain the amount of each related substance (%) and the total amount of related substances (%), and the content.
(§2) • Column: Waters Atlantis dc18, 5 μm, 4.6×250 mm • Column temperature: a constant temperature of about 35° C. • Injected amount: 5 μL • Detector: an ultraviolet absorption photometer (wavelength: 210 nm) • Mobile phase A: 1.32 g of diammonium hydrogenphosphate was dissolved in 900 mL of water, and phosphoric acid was added to adjust the pH to 3.0. To this was then added water to make 1000 mL. • Mobile phase B: Acetonitrile for liquid chromatography • Gradient program: The mixing ratio of mobile phase A to mobile phase B was controlled as the following time program.
(§3) About 20 mg of the product was precisely measured and tested by JP16, Water Determination <2.48>Coulometric titration.

[2] = Experiment on crystal transformation (powder X-ray diffraction after stirring suspension or storage)
Description: (§4) Crystal transformation in the polymorphism of the compound represented by Formula (VII-1) obtained in the present invention are not observed in a stability test carried out at 40° C. in the solid state or in stirring the suspension in a hydrous solvent for a long time. When crystalline form III of the compound represented by Formula (VII-1) was subjected to an XRD-DSC experiment, heated to 160° C. at 60% RH, and then allowed to cool on standing to 63° C., the crystalline form changed to anhydrous crystalline form over about 145° C., and then returned to the crystalline form III below about 90° C. after cooling. On the basis of these findings, a crystalline form of a compound represented by Formula (VII-1), particularly the crystalline form III constitutes a stable form under ordinary conditions.
A small amount of a suspension of the crystals of Example 6a was taken and stirred at room temperature for one day. The precipitated crystals were collected and subjected to powder X-ray crystal diffraction.
In the step of Example 7a, a small amount was taken out of the suspension immediately after the seeding and of the suspension after the dropwise addition of isopropanol, and each of the taken-out portions was stirred with a stirring bar at room temperature for one day and four days. The precipitated crystals were collected and subjected to powder X-ray crystals diffraction.
Crystalline form IV of Examples 8a-c was taken and isopropanol/water (6/1) was added thereto and suspended and stirred at 25° C. or 40° C. for one week. Samples were taken after 12 hours, 24 hours (one day), 48 hours (two days), 72 hours (three days), 96 hours (four days) and 168 hours (one week), and subjected to powder X-ray crystal diffraction after through-flow drying.

[3] = Solubility in aqueous isopropanol solution
From the text: Crystalline forms I, II and III are distinguished by DSC, solubility in aqueous isopropanol, and lattice spacing in powder X-ray diffraction patterns. […]

[4] = Stability of crystalline form III in a packaging container; settings: polyethylene bag/aluminium laminated bag
Description: as §1, §2, §3
Crystalline form III was packaged under the following conditions and stability tests were conducted at each of the temperatures and humidity conditions under analysis conditions of Example 9a. The results are shown in Tables 10-12. • Packaging container • Inner bag: a low-density polyethylene·nylon tie band • Outer bag: an aluminium laminated bag·heat sealed

[5] = XRD-DSC experiment on crystalline form III (crystal transformation by heating)
Description: as §4
Crystal transformation by heating in polymorphism of crystalline form III of Example 7a was examined using XRD-DSC. Heating and cooling conditions were as follows: the temperature was elevated at a rate of 2° C./min from room temperature to 160° C. and then cooled to 63° C. under a constant relative humidity (RH) of 60%. DSC and XRD of the samples were successively measured. […]

[6] = 60° C., 4 weeks (text: 1 month)

SMILES: NCCONC(=O)[C@@H]1CC[C@@H]2CN1C(=O)N2OS(=O)(=O)O [Amorphous form, (2S,5R)-N-(2-aminoethoxy)-7-oxo-6-(sulfooxy)-1,6-diazabicyclo[3.2.1]octane-2-carboxamide]
- Content ([1]; 1 month): 93.3%
- Total amount of related substances ([1]; 1 month): 6.6%
- Water content ([1]; 1 month): 3.3%
- Content ([1]; 3 months): 87.5%
- Total amount of related substances ([1]; 3 months): 12.3%
- Water content ([1]; 3 months): 3.8%
- Content ([1]; at start): 99.4%
- Total amount of related substances ([1]; at start): 0.5%
- Water content ([1]; at start): 1.3%

SMILES: NCCONC(=O)[C@@H]1CC[C@@H]2CN1C(=O)N2OS(=O)(=O)O [Crystalline form I, (2S,5R)-N-(2-aminoethoxy)-7-oxo-6-(sulfooxy)-1,6-diazabicyclo[3.2.1]octane-2-carboxamide]
- Content ([1]; 1 month): 99.9%
- Total amount of related substances ([1]; 1 month): 0.0%
- Water content ([1]; 1 month): 5.4%
- Content ([1]; 1 month, listed as Form I): 99.9%
- Total amount of related substances ([1]; 1 month, listed as Form I): 0.0%
- Water content ([1]; 1 month, listed as Form I): 5.4%
- Content ([1]; 3 months): 99.8%
- Total amount of related substances ([1]; 3 months): 0.1%
- Water content ([1]; 3 months): 5.6%
- Content ([1]; 3 months, listed as Form I): 99.8%
- Total amount of related substances ([1]; 3 months, listed as Form I): 0.1%
- Water content ([1]; 3 months, listed as Form I): 5.6%
- Content ([1]; at start): 99.9%
- Total amount of related substances ([1]; at start): 0.1%
- Water content ([1]; at start): 5.4%
- Content ([1]; at start, listed as Form I): 99.9%
- Total amount of related substances ([1]; at start, listed as Form I): 0.1%
- Water content ([1]; at start, listed as Form I): 5.4%
- Solubility in aqueous isopropanol, comparison of crystalline forms I, II and III [3]: lowest solubility
- Solubility in an aqueous 60% isopropanol solution ([3]; 10° C.): 0.44%
- Solubility in an aqueous 60% isopropanol solution ([3]; 20° C.): 0.48%

Second part, led by results:

- Content ([1]; 1 month): 99.8%
- Total amount of related substances ([1]; 1 month): 0.0%
- Water content ([1]; 1 month): 0.1%
- Content ([1]; 1 month, listed as Form IV): 99.8%
- Total amount of related substances ([1]; 1 month, listed as Form IV): 0.0%
- Water content ([1]; 1 month, listed as Form IV): 0.1%
- Content ([1]; at start): 99.9%
- Total amount of related substances ([1]; at start): 0.0%
- Water content ([1]; at start): 0.1%
- Content ([1]; at start, listed as Form IV): 99.9%
- Total amount of related substances ([1]; at start, listed as Form IV): 0.0%
- Water content ([1]; at start, listed as Form IV): 0.1%
SMILES: NCCONC(=O)[C@@H]1CC[C@@H]2CN1C(=O)N2OS(=O)(=O)O [Crystalline form IV, (2S,5R)-N-(2-aminoethoxy)-7-oxo-6-(sulfooxy)-1,6-diazabicyclo[3.2.1]octane-2-carboxamide]
- Crystal transformation to a different crystal form ([2]; suspended in isopropanol/water (6/1), stirred at 25° C. or 40° C., 12 hours to one week): No crystal transformation to a different crystal form was observed

- Content ([1]; 1 month): 99.8%
- Total amount of related substances ([1]; 1 month): 0.0%
- Water content ([1]; 1 month): 5.6%
- Content ([1]; 1 month, listed as Form II): 99.8%
- Total amount of related substances ([1]; 1 month, listed as Form II): 0.0%
- Water content ([1]; 1 month, listed as Form II): 5.6%
- Content ([1]; 3 months): 99.3%
- Total amount of related substances ([1]; 3 months): 0.5%
- Water content ([1]; 3 months): 5.9%
- Content ([1]; 3 months, listed as Form II): 99.3%
- Total amount of related substances ([1]; 3 months, listed as Form II): 0.5%
- Water content ([1]; 3 months, listed as Form II): 5.9%
- Content ([1]; at start): 99.8%
- Total amount of related substances ([1]; at start): 0.1%
- Water content ([1]; at start): 5.7%
- Content ([1]; at start, listed as Form II): 99.8%
- Total amount of related substances ([1]; at start, listed as Form II): 0.1%
- Water content ([1]; at start, listed as Form II): 5.7%
- Solubility in an aqueous 60% isopropanol solution ([3]; 10° C.): 0.67%
- Solubility in an aqueous 60% isopropanol solution ([3]; 20° C.): 0.74%
SMILES: NCCONC(=O)[C@@H]1CC[C@@H]2CN1C(=O)N2OS(=O)(=O)O [Crystalline form II, (2S,5R)-N-(2-aminoethoxy)-7-oxo-6-(sulfooxy)-1,6-diazabicyclo[3.2.1]octane-2-carboxamide]
- Crystal transformation to a different crystal form ([2]; suspension of the crystals stirred at room temperature for one day, powder X-ray diffraction): No crystal transformation to a different crystal form was observed

- Content ([1]; 1 month): 100.0%
- Total amount of related substances ([1]; 1 month): 0.0%
- Water content ([1]; 1 month): 5.3%
- Content ([1]; 1 month, listed as Form III): 100.0%
- Total amount of related substances ([1]; 1 month, listed as Form III): 0.0%
- Water content ([1]; 1 month, listed as Form III): 5.3%
- Content ([1]; 3 months): 99.9%
- Total amount of related substances ([1]; 3 months): 0.0%
- Water content ([1]; 3 months): 5.5%
- Content ([1]; 3 months, listed as Form III): 99.9%
- Total amount of related substances ([1]; 3 months, listed as Form III): 0.0%
- Water content ([1]; 3 months, listed as Form III): 5.5%
- Content ([1]; at start): 99.9%
- Total amount of related substances ([1]; at start): 0.0%
- Water content ([1]; at start): 5.3%
- Content ([1]; at start, listed as Form III): 99.9%
- Total amount of related substances ([1]; at start, listed as Form III): 0.0%
- Water content ([1]; at start, listed as Form III): 5.3%
- Content ([4]; 25° C./60% RH, 3 months): 99.9%
- Total amount of related substances ([4]; 25° C./60% RH, 3 months): 0.07%
- Water content ([4]; 25° C./60% RH, 3 months): 5.23%
- Content ([4]; 25° C./60% RH, at start): 99.9%
- Total amount of related substances ([4]; 25° C./60% RH, at start): 0.09%
- Water content ([4]; 25° C./60% RH, at start): 5.32%
- Content ([4]; 40° C./75% RH, 1 month): 99.9%
- Total amount of related substances ([4]; 40° C./75% RH, 1 month): 0.07%
- Water content ([4]; 40° C./75% RH, 1 month): 5.51%
- Content ([4]; 40° C./75% RH, 2 months): 99.9%
- Total amount of related substances ([4]; 40° C./75% RH, 2 months): 0.04%
- Water content ([4]; 40° C./75% RH, 2 months): 5.27%
- Content ([4]; 40° C./75% RH, 3 months): 99.9%
- Total amount of related substances ([4]; 40° C./75% RH, 3 months): 0.06%
- Water content ([4]; 40° C./75% RH, 3 months): 5.29%
- Content ([4]; 40° C./75% RH, at start): 99.9%
- Total amount of related substances ([4]; 40° C./75% RH, at start): 0.09%
- Water content ([4]; 40° C./75% RH, at start): 5.20%
- Content ([4]; 60° C., 2 weeks): 99.9%
- Total amount of related substances ([4]; 60° C., 2 weeks): 0.02%
- Water content ([4]; 60° C., 2 weeks): 5.20%
- Content [4, 6]: 99.9%
- Total amount of related substances [4, 6]: 0.04%
- Water content [4, 6]: 5.08%
- Content ([4]; 60° C., at start): 99.9%
- Total amount of related substances ([4]; 60° C., at start): 0.09%
- Water content ([4]; 60° C., at start): 5.20%
- Solubility in an aqueous 60% isopropanol solution ([3]; 10° C.): 0.76%
- Solubility in an aqueous 60% isopropanol solution ([3]; 20° C.): 0.80%
- Temperature at which it returned to the crystalline form III after cooling ([5]; allowed to cool to 63° C. at 60% RH): below 90 °C
- Temperature at which the crystalline form changed to anhydrous crystalline form ([5]; heated to 160° C. at 60% RH): over 145 °C
SMILES: NCCONC(=O)[C@@H]1CC[C@@H]2CN1C(=O)N2OS(=O)(=O)O [Crystalline form III, (2S,5R)-N-(2-aminoethoxy)-7-oxo-6-(sulfooxy)-1,6-diazabicyclo[3.2.1]octane-2-carboxamide]
- Crystal transformation to a different crystal form ([2]; suspensions after seeding and after isopropanol addition, stirred at room temperature for one day and four days): No crystal transformation to a different crystal form was observed
